The source of these data is patent US8623859B2, “Bradykinin B1 antagonists” (Evotec AG, priority 2008, dated 2014).

The assay deals with T1, human B1 (Homo sapiens, UniProt P46663).
T1 construct: host or cells: CHO-K1
T1 sequence (P46663 1-353): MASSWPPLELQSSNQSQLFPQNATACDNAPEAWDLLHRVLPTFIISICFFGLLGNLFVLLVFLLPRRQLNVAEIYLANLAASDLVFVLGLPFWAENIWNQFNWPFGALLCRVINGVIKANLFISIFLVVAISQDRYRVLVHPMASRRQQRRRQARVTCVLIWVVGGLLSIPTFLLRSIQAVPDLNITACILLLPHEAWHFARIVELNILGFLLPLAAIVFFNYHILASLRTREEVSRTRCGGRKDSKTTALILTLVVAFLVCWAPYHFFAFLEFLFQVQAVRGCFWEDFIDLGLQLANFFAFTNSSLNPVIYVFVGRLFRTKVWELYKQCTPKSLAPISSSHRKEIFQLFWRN
Put plainly: Calcium flux assay for Bradykinin B1 antagonist, CHO-K1 cell line expressing human B1. Type of assay: cell-based. As to conditions: CHO-K1 cells expressing human B1, agonist Lys-(Des-Arg)-Bradykinin, read-out: Potency (IC50 value against human B1). A digest of the protocol: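 CHO-K1 cells expressing human B1, loaded with 5 μM Fluo-4AM (2 h, 37° C) in HEPES buffer pH 7.4 with probenecid and 0.1% BSA, were preincubated 30 min at 25° C with compound (8 concentrations, triplicate, 1% DMSO) before B1 agonist addition. Ca2+ fluorescence monitored at 538 nm; background-normalized integrated values plotted against log antagonist concentration.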
A general note: Calcium assays in cells follow changes in intracellular calcium, usually with a dye or a luminescent sensor.

Molecules are shown by their SMILES. Counter-ions that a name gives are not always drawn. Bounds are passed on as bounds.

Broadly, the IC50 is the point on the concentration scale where inhibition reaches its midpoint. As to `COc1cc(C)c(S(=O)(=O)N(C)Cc2cc(C(=O)N(C)Cc3cc(CN4CCCC4)ccc3F)co2)c(C)c1` [Ex 156, N-[2-Fluoro-5-(pyrrolidin-1-ylmethyl)benzyl]-5-({[(4-methoxy-2,6-dimethylphenyl)sulfonyl](methyl)amino}methyl)-N-methylfuran-3-carboxamide trifluoroacetate], the IC50 lay in the range of 10 to 100 nM.
The figure for `COc1cc(C)c(S(=O)(=O)N(C)Cc2cc(C(=O)N(C)Cc3ccc(CN4CCCC4)c(F)c3)co2)c(C)c1` [Ex 157, N-[3-Fluoro-4-(pyrrolidin-1-ylmethyl)benzyl]-5-({[(4-methoxy-2,6-dimethylphenyl)sulfonyl](methyl)amino}methyl)-N-methylfuran-3-carboxamide trifluoroacetate] is 10 to 100 nM; for `COc1cc(C)c(S(=O)(=O)N(C)Cc2cc(C(=O)N(C)Cc3cc(F)cc(CN4CCCC4)c3)co2)c(C)c1` [Ex 158, N-[3-Fluoro-5-(pyrrolidin-1-ylmethyl)benzyl]-5-({[(4-methoxy-2,6-dimethylphenyl)sulfonyl](methyl)amino}methyl)-N-methylfuran-3-carboxamide trifluoroacetate] it is 10 to 100 nM.
Turning to `COc1cc(C)c(S(=O)(=O)N(C)Cc2nc(C(=O)N(C)Cc3ccc(C[N+]4([O-])CCCC4)cc3)co2)c(C)c1` [Ex 159, 2-({[(4-Methoxy-2,6-dimethylphenyl)sulfonyl](methyl)amino}methyl)-N-methyl-N-{4-[(1-oxidopyrrolidin-1-yl)methyl]benzyl}-1,3-oxazole-4-carboxamide trifluoroacetate], the 50% inhibitory concentration (IC50) was in the range of 100 to 1000 nM.
As for `COc1cc(C)c(S(=O)(=O)N(Cc2nc(C(=O)NCCC3CCCNC3)co2)C2CC2)c(C)c1` (stereo not drawn) [Ex 159a, 2-({Cyclopropyl[(4-methoxy-2,6-dimethylphenyl)sulfonyl]amino}methyl)-N-(2-piperidin-3-ylethyl)-1,3-oxazole-4-carboxamide], the IC50 is 100 to 1000 nM.
To `COc1cc(C)c(S(=O)(=O)N(Cc2nc(C(=O)N(C)Cc3csc(CN4CCCC4)n3)co2)C2CC2)c(C)c1` [Ex 160, 2-({Cyclopropyl[(4-methoxy-2,6-dimethylphenyl)sulfonyl]amino}methyl)-N-methyl-N-{[2-(pyrrolidin-1-ylmethyl)-1,3-thiazol-4-yl]methyl}-1,3-oxazole-4-carboxamide] belongs 10 to 100 nM; to `COc1cc(C)c(S(=O)(=O)N(Cc2nc(C(=O)N3CCN(c4ccncc4)CC3)co2)C2CC2)c(C)c1` [Ex 161, N-Cyclopropyl-4-methoxy-2,6-dimethyl-N-({4-[(4-pyridin-4-ylpiperazin-1-yl)carbonyl]-1,3-oxazol-2-yl}methyl)benzenesulfonamide trifluoroacetate], 100 to 1000 nM.
To `COc1cc(C)c(S(=O)(=O)N(Cc2nc(C(=O)N3CCN(Cc4ccncc4)CC3)co2)C2CC2)c(C)c1` [Ex 162, N-Cyclopropyl-4-methoxy-2,6-dimethyl-N-[(4-{[4-(pyridin-4-ylmethyl)piperazin-1-yl]carbonyl}-1,3-oxazol-2-yl)methyl]benzenesulfonamide trifluoroacetate] belongs less than 10 nM; to `COc1cc(C)c(S(=O)(=O)N(Cc2nc(C(=O)N3CCN(Cc4cccnc4)CC3)co2)C2CC2)c(C)c1` [Ex 163, N-Cyclopropyl-4-methoxy-2,6-dimethyl-N-[(4-{[4-(pyridin-3-ylmethyl)piperazin-1-yl]carbonyl}-1,3-oxazol-2-yl)methyl]benzenesulfonamide trifluoroacetate], less than 10 nM; to `COc1cc(C)c(S(=O)(=O)N(C)Cc2nc(C(=O)N3CCN(CCN4CCCC4)CC3)co2)c(C)c1` [Ex 164, 4-Methoxy-N,2,6-trimethyl-N-[(4-{[4-(2-pyrrolidin-1-ylethyl)piperazin-1-yl]carbonyl}-1,3-oxazol-2-yl)methyl]benzenesulfonamide], 100 to 1000 nM.
Consider `COc1cc(C)c(S(=O)(=O)N(Cc2nc(C(=O)N3CCN(C4CCN(C)CC4)CC3)co2)C2CC2)c(C)c1` [Ex 165, N-Cyclopropyl-4-methoxy-2,6-dimethyl-N-[(4-{[4-(1-methylpiperidin-4-yl)piperazin-1-yl]carbonyl}-1,3-oxazol-2-yl)methyl]benzenesulfonamide], for which the IC50 was less than 10 nM.
Take `COc1cc(C)c(S(=O)(=O)N(C)Cc2nc(C(=O)N(C)Cc3ccc(CN4CCC(O)CC4)cc3)co2)c(C)c1` [Ex 166, N-{4-[(4-Hydroxypiperidin-1-yl)methyl]benzyl}-2-({[(4-methoxy-2,6-dimethylphenyl)sulfonyl](methyl)amino}methyl)-N-methyl-1,3-oxazole-4-carboxamide]: the IC50 was less than 10 nM.
Regarding `COc1cc(C)c(S(=O)(=O)N(C)Cc2nc(C(=O)N(C)Cc3ccc(CN4CCC(OC)CC4)cc3)co2)c(C)c1` [Ex 167, 2-({[(4-Methoxy-2,6-dimethylphenyl)sulfonyl](methyl)amino}methyl)-N-{4-[(4-methoxypiperidin-1-yl)methyl]benzyl}-N-methyl-1,3-oxazole-4-carboxamide], the IC50 is less than 10 nM.
Consider `COc1cc(C)c(S(=O)(=O)N(C)Cc2nc(C(=O)N(C)Cc3ccc(CN4CCCC(OC)C4)cc3)co2)c(C)c1` (stereo not drawn) [Ex 168, 2-({[(4-Methoxy-2,6-dimethylphenyl)sulfonyl](methyl)amino}methyl)-N-{4-[(3-methoxypiperidin-1-yl)methyl]benzyl}-N-methyl-1,3-oxazole-4-carboxamide], for which the IC50 was 10 to 100 nM.
Turning to `COc1cc(C)c(S(=O)(=O)N(C)Cc2nc(C(=O)N(C)Cc3ccc(CN4CCC(OC)C4)cc3)co2)c(C)c1` (stereo not drawn) [Ex 169, 2-({[(4-Methoxy-2,6-dimethylphenyl)sulfonyl](methyl)amino}methyl)-N-{4-[(3-methoxypyrrolidin-1-yl)methyl]benzyl}-N-methyl-1,3-oxazole-4-carboxamide], the IC50 was less than 10 nM.
The figure for `COc1cc(C)c(S(=O)(=O)N(C)Cc2nc(C(=O)N(C)Cc3ccc(CN4CCC(NC(C)=O)C4)cc3)co2)c(C)c1` (stereo not drawn) [Ex 170, N-(4-{[3-(Acetylamino)pyrrolidin-1-yl]methyl}benzyl)-2-({[(4-methoxy-2,6-dimethylphenyl)sulfonyl](methyl)amino}methyl)-N-methyl-1,3-oxazole-4-carboxamide] is 10 to 100 nM; for `COc1cc(C)c(S(=O)(=O)N(C)Cc2nc(C(=O)N(C)Cc3ccc(CN4CCC(C(=O)N(C)C)C4)cc3)co2)c(C)c1` (stereo not drawn) [Ex 171, N-(4-{[3-(Dimethylcarbamoyl)pyrrolidin-1-yl]methyl}benzyl)-2-({[(4-methoxy-2,6-dimethylphenyl)sulfonyl](methyl)amino}methyl)-N-methyl-1,3-oxazole-4-carboxamide] it is less than 10 nM.
The figure for `COc1cc(C)c(S(=O)(=O)N(C)Cc2nc(C(=O)N(C)Cc3ccc(CN4CC(O)C4)cc3)co2)c(C)c1` [Ex 172, N-{4-[(3-Hydroxyazetidin-1-yl)methyl]benzyl}-2-({[(4-methoxy-2,6-dimethylphenyl)sulfonyl](methyl)amino}methyl)-N-methyl-1,3-oxazole-4-carboxamide] is 10 to 100 nM.
Turning to `COc1cc(C)c(S(=O)(=O)N(C)Cc2nc(C(=O)N(C)Cc3ccc(CN4CC(OC)C4)cc3)co2)c(C)c1` [Ex 173, N-{4-[(3-Methoxyazetidin-1-yl)methyl]benzyl}-2-({[(4-methoxy-2,6-dimethylphenyl)sulfonyl](methyl)amino}methyl)-N-methyl-1,3-oxazole-4-carboxamide], the IC50 was in the range of 10 to 100 nM.
To `COc1cc(C)c(S(=O)(=O)N(C)Cc2nc(C(=O)N3CCN(CCCN4CCCC4)CC3)co2)c(C)c1` [Ex 174, 4-Methoxy-N,2,6-trimethyl-N-[(4-{[4-(3-pyrrolidin-1-ylpropyl)piperazin-1-yl]carbonyl}-1,3-oxazol-2-yl)methyl]benzenesulfonamide] belongs less than 10 nM; to `COc1cc(C)c(S(=O)(=O)N(C)Cc2nc(C(=O)N3CCN(CC4CCN(C)CC4)CC3)co2)c(C)c1` [Ex 175, 4-Methoxy-N,2,6-trimethyl-N-{[4-({4-[(1-methylpiperidin-4-yl)methyl]piperazin-1-yl}carbonyl)-1,3-oxazol-2-yl]methyl}benzenesulfonamide], less than 10 nM.
The figure for `COc1cc(C)c(S(=O)(=O)N(Cc2nc(C(=O)N(C)Cc3ccc(CN4CCC(O)C4)cc3)co2)C2CC2)c(C)c1` (stereo not drawn) [Ex 176, 2-({Cyclopropyl[(4-methoxy-2,6-dimethylphenyl)sulfonyl]amino}methyl)-N-{4-[(3-hydroxypyrrolidin-1-yl)methyl]benzyl}-N-methyl-1,3-oxazole-4-carboxamide] is less than 10 nM; for `COc1cc(C)c(S(=O)(=O)N(C)Cc2nc(C(=O)N(C)Cc3ccc(CN4CCC(N(C)C)C4)cc3)co2)c(C)c1` (stereo not drawn) [Ex 177, N-(4-{[3-(Dimethylamino)pyrrolidin-1-yl]methyl}benzyl)-2-({[(4-methoxy-2,6-dimethylphenyl)sulfonyl](methyl)amino}methyl)-N-methyl-1,3-oxazole-4-carboxamide] it is 10 to 100 nM.
The figure for `COc1cc(C)c(S(=O)(=O)N(C)Cc2nc(C(=O)N(C)Cc3ccc(CN4CCC(O)C4)cc3)co2)c(C)c1` (stereo not drawn) [Ex 178, N-{4-[(3-Hydroxypyrrolidin-1-yl)methyl]benzyl}-2-({[(4-methoxy-2,6-dimethylphenyl)sulfonyl](methyl)amino}methyl)-N-methyl-1,3-oxazole-4-carboxamide] is less than 10 nM.
